# From patent publication US11266663B2, “Treatment of neuropsychiatric disorders with neurosteroids and analogues thereof” (THE BOARD OF TRUSTEES OF THE UNIVERSITY OF ILLINOIS, priority 2017, dated 2022)
# Where “and” joins values, the source holds several entries; their conditions need not be identical. Equal entries are not always repeated. Entries after “also recorded” stand apart in the source; their conditions may differ.
# Columns and labels:
# [1] = tested on: post-partum depression patients; conditions: two-day course of intravenous infusion; cited from earlier work
# [2] = tested on: early and late adolescent SI mice; assay: Locomotor activity test; assay type: in vivo, Swiss-Webster mice; conditions: all doses tested, i.p., 60 min before test, 10 min recording
# Description: BR351 (1-5 mg/kg) and BR297 (0.3125-2.5 mg/kg) were obtained from NeuroRhine Consortium (Strasbourgh, France). All the drugs were dissolved in saline solution containing 0.5% Tween-80 (Sigma Aldrich, St. Louis, Mo., United States), and were injected intraperitoneally (i.p.), 60 min before behavioral tests.
# A computerized AccuScan 12 Animal Activity Monitoring System (Columbus Instruments, Columbus, Ohio, United States) assisted by VERSAMAX software (AccuScan Instruments, Columbus, Ohio, United States) was used to quantify locomotor activity (Pinna et al., 1997, 2006a). Each activity cage was made of a 20 cm×20 cm×20 cm Perspex box surrounded by horizontal and vertical infrared sensor beams. Horizontal sensors' beam interruptions were taken as a measure of horizontal activity.
# [3] = tested on: early and late adolescent SI mice; assay: Resident-intruder test, aggressive behavior of socially isolated (SI) mice; assay type: in vivo, Swiss-Webster mice; conditions: for reduction in the number of attacks vs. basal value / EC50 dose, decrease of aggression: 60 min before test; for “Non-responders” Early SI mice (%) / “Non-responders” Late SI mice (%): decrease of aggression <=30% vs basal; for EC50 dose, decrease of aggression: i.p.
# Excerpt: Male Swiss-Webster mice (Harlan Breeders) (18-30 g body weight), maintained under a 12-h dark/light cycle with food and water ad libitum were used for all experiments. Mice were housed individually in a cage of dimensions 24 cm×17 cm×12 cm. For these experiments, two mice experimental groups were used for the study of drug effect in different age conditions. The first group was isolated at 21 days (“early adolescent SI mice,” PND 21), while the second group at 45 days (“late adolescent SI mice,” PND 45). The animals were exposed to behavioral testing after 6 weeks of isolation. The vivarium temperature was kept at 24° C. and the humidity near 65%.
# […] All the drugs were dissolved in saline solution containing 0.5% Tween-80 (Sigma Aldrich, St. Louis, Mo., United States), and were injected intraperitoneally (i.p.), 60 min before behavioral tests.
# To test aggression, a male intruder mouse of the same strain as the resident mouse, was placed in a resident home cage (24 cm×17 cm×12 cm) and resident-intruder interactions were videotaped for 10 min. Aggressive behavior of SI mice was characterized by an initial pattern of exploratory activity around the intruder, followed by rearing and tail rattle, accompanied within a few seconds by wrestling and/or a violent biting attacks. The total number of wrestling and attacks during the 10 min observation period was measured as previously described (Pinna et al., 2003, 2005), 60 min after drug administration. For every drug studied, SI mice were first exposed to three behavioral sessions, and then the average of basal aggression level for every single SI mouse was calculated; 2 days later, aggression levels following treatment were tested. Treated animals showing a reduction of the number of attacks less than 30% vs. the respective basal control values were considered as “low- to non-responders.”
# Results are presented as means±SEMs unless otherwise indicated. Student's t-test, one-way ANOVA and two-way ANOVA repeated measures followed by Bonferroni post hoc test were performed to analyze experimental data; significance was set at p<0.05. EC50 values were calculated from dose-response curves analyzed by the “quantal dose-response: probits test” using the computer program of Tallarida and Murray equipped with a statistical package (Tallarida and Murray, 1987). Statistical comparisons among the different ECsos were performed with the “cohort package software.” (available at cohort.com).
# [4] = tested on: early and late adolescent SI mice; conditions: i.p., previously established in Pinna and Rasmusson, 2014; cited from earlier work
# [5] = early SI mice, single dose 2.5 mg/kg
# [6] = early SI mice, single dose, dose not stated (FIG. 5 legend)
# [7] = early adolescent SI mice (PND 21)
# [8] = late SI mice, single dose 2.5 mg/kg (given in mg)
# [9] = late SI mice, single dose, dose not stated (FIG. 5 legend)
# [10] = late adolescent SI mice (PND 45)
compound,measurement,setting,value
"CC(=O)C1CC[C@H]2[C@@H]3CCC4C[C@H](O)CC[C@]4(C)[C@H]3CC[C@]12C (stereo partly shown) [Allo, allopregnanolone]",duration of symptom improvement,[1],30 days
same,"remission of post-partum depression, patients",[1],70%
same,time to symptom improvement,[1],60 h
C=CCO[C@H]1CC[C@]2(C)C3CC[C@@]4(C)C(CC[C@@H]4C(C)=O)C3CC[C@H]2C1 (stereo partly shown) [BR297],effect on locomotor (exploratory) activity,[2],failed to alter locomotion patterns
same,"difference of anti-aggressive effect, late compared with early SI mice","[3]; 2.5 mg/kg i.p., trend, p=0.108",+235%
same,reduction in the number of attacks vs. basal value,"[3]; early SI mice (PND 21), 0.3125 mg/kg i.p.",−59%
same,reduction in the number of attacks vs. basal value,"[3]; early SI mice (PND 21), 0.625 mg/kg i.p.",−61%
same,reduction in the number of attacks vs. basal value,"[3]; early SI mice (PND 21), 2.5 mg/kg i.p.",−70%
same,“Non-responders” Early SI mice (%),"[3]; early SI mice, single dose 0.3125 mg/kg (given in mg)",30.0%
same,“Non-responders” Early SI mice (%),"[3]; early SI mice, single dose 0.625 mg/kg (given in mg)",21.4%
same,“Non-responders” Early SI mice (%),"[3]; early SI mice, single dose 2.5 mg/kg (given in mg), 2.5 mg/kg",6.25% and 6.3%
same,duration of anti-aggressive effect (time until aggression rebounded to basal values),"[3]; early SI mice, single dose 0.3125 mg/kg",3 days
same,duration of anti-aggressive effect (time until aggression rebounded to basal values),"[3]; early SI mice, single dose 0.625 mg/kg",7 days
same,duration of anti-aggressive effect (time until aggression rebounded to basal values),[3]; [5],7 days
same,duration of anti-aggressive effect (time until aggression rebounded to basal values),[3]; [6],7 days
same,"EC50 dose, decrease of aggression",[3]; [7],0.25 mg/kg
same,reduction in the number of attacks vs. basal value,"[3]; late SI mice (PND 45), 0.3125 mg/kg i.p.",−60%
same,reduction in the number of attacks vs. basal value,"[3]; late SI mice (PND 45), 0.625 mg/kg i.p.",−63%
same,reduction in the number of attacks vs. basal value,"[3]; late SI mice (PND 45), 2.5 mg/kg i.p.",−91%
same,“Non-responders” Late SI mice (%),"[3]; late SI mice, single dose 0.3125 mg/kg (given in mg)",18.2%
same,“Non-responders” Late SI mice (%),"[3]; late SI mice, single dose 0.625 mg/kg (given in mg)",18.2%
same,“Non-responders” Late SI mice (%),[3]; [8],0%
same,duration of anti-aggressive effect (time until aggression rebounded to basal values),"[3]; late SI mice, single dose 0.3125 mg/kg",3 days
same,duration of anti-aggressive effect (time until aggression rebounded to basal values),"[3]; late SI mice, single dose 0.625 mg/kg",9 days
same,duration of anti-aggressive effect (time until aggression rebounded to basal values),[3]; [9],9 days
same,"EC50 dose, decrease of aggression",[3]; [10],0.25 mg/kg
C=CCO[C@@H]1CC[C@]2(C)C3CC[C@@]4(C)C(CC[C@@H]4C(C)=O)C3CC[C@H]2C1 (stereo partly shown) [BR351],effect on locomotor (exploratory) activity,[2],failed to alter locomotion patterns
same,"difference of anti-aggressive effect, late compared with early SI mice","[3]; 5 mg/kg i.p., trend, p=0.0801",+179%
same,reduction in the number of attacks vs. basal value,"[3]; early SI mice (PND 21), 5 mg/kg i.p.",−56%
same,“Non-responders” Early SI mice (%),"[3]; early SI mice, single dose 1 mg/kg (given in mg)",50.0%
same,“Non-responders” Early SI mice (%),"[3]; early SI mice, single dose 2.5 mg/kg (given in mg)",20.0%
same,“Non-responders” Early SI mice (%),"[3]; early SI mice, single dose 5 mg/kg (given in mg), 5 mg/kg",13.33% and 13.3%
same,duration of anti-aggressive effect (time until aggression rebounded to basal values),"[3]; early SI mice, single dose 1 mg/kg",rapidly extinguished
same,duration of anti-aggressive effect (time until aggression rebounded to basal values),[3]; [5],5 days
same,duration of anti-aggressive effect (time until aggression rebounded to basal values),"[3]; early SI mice, single dose 5 mg/kg",3 days
same,"EC50 dose, decrease of aggression",[3]; [7],4.5 mg/kg
same,reduction in the number of attacks vs. basal value,"[3]; late SI mice (PND 45), 5 mg/kg i.p.",−80%
same,“Non-responders” Late SI mice (%),"[3]; late SI mice, single dose 1 mg/kg (given in mg)",54.6%
same,“Non-responders” Late SI mice (%),[3]; [8],40.0%
same,“Non-responders” Late SI mice (%),"[3]; late SI mice, single dose 5 mg/kg (given in mg), 5 mg/kg",8.33% and 8.3%
same,duration of anti-aggressive effect (time until aggression rebounded to basal values),"[3]; late SI mice, single dose 1 mg/kg",1 days
same,duration of anti-aggressive effect (time until aggression rebounded to basal values),"[3]; late SI mice, single dose 2.5 mg/kg",5 days
same,duration of anti-aggressive effect (time until aggression rebounded to basal values),"[3]; late SI mice, single dose 5 mg/kg",5 days
same,"EC50 dose, decrease of aggression",[3]; [10],3.75 mg/kg
"CC(=O)[C@H]1CC[C@H]2[C@@H]3CC[C@H]4C[C@](C)(O)CC[C@]4(C)[C@H]3CC[C@]12C [GNX, ganaxolone, reference compound]",effect on locomotor (exploratory) activity,[2],failed to alter locomotion patterns
same,EC50 dose,[4],10 mg/kg
same,"difference of anti-aggressive effect, late compared with early SI mice",[3]; 10 mg/kg i.p.,+197%
same,reduction in the number of attacks vs. basal value,"[3]; early SI mice (PND 21), 10 mg/kg i.p.",−72%
same,“Non-responders” Early SI mice (%),"[3]; early SI mice, single dose 10 mg/kg (given in mg), 10 mg/kg",25%
same,reduction in the number of attacks vs. basal value,"[3]; late SI mice (PND 45), 10 mg/kg i.p.",−46%
same,“Non-responders” Late SI mice (%),"[3]; late SI mice, single dose 10 mg/kg (given in mg), 10 mg/kg",15.38% and 15.4%
same,duration of anti-aggressive effect (time until aggression rebounded to basal values),"[3]; late SI mice, single dose 10 mg/kg (EC50 dose)",5 days
"CCCCCCCCCCCCCCCC(=O)NCCO [PEA, N-palmitoylethanolamine]",effect on locomotor (exploratory) activity,[2],not altered
"CNCC[C@H](Oc1ccc(C(F)(F)F)cc1)c1ccccc1 [S-FLX, S-fluoxetine, reference compound]",effect on locomotor (exploratory) activity,[2],did not reduce exploratory activity; also recorded: failed to alter locomotion patterns
same,duration of anti-aggressive effect (time until aggression rebounded to basal values),"[3]; early SI mice, single dose 0.375 mg/kg",1 days
same,duration of anti-aggressive effect (time until aggression rebounded to basal values),"[3]; early SI mice, single dose 0.75 mg/kg",3 days
same,duration of anti-aggressive effect (time until aggression rebounded to basal values),[3]; [6],3 days
same,reduction in the number of attacks vs. basal value,"[3]; late SI mice (PND 45), 0.75 mg/kg i.p.",−52%
same,duration of anti-aggressive effect (time until aggression rebounded to basal values),"[3]; late SI mice, single dose 0.375 mg/kg",1 days
same,duration of anti-aggressive effect (time until aggression rebounded to basal values),"[3]; late SI mice, single dose 0.75 mg/kg",3 days
same,duration of anti-aggressive effect (time until aggression rebounded to basal values),[3]; [9],3 days
